Experiment [1] addresses T1, Tissue alpha-L-fucosidase (Bos taurus, UniProt Q2KIM0).
T1 sequence (Q2KIM0 whole entry): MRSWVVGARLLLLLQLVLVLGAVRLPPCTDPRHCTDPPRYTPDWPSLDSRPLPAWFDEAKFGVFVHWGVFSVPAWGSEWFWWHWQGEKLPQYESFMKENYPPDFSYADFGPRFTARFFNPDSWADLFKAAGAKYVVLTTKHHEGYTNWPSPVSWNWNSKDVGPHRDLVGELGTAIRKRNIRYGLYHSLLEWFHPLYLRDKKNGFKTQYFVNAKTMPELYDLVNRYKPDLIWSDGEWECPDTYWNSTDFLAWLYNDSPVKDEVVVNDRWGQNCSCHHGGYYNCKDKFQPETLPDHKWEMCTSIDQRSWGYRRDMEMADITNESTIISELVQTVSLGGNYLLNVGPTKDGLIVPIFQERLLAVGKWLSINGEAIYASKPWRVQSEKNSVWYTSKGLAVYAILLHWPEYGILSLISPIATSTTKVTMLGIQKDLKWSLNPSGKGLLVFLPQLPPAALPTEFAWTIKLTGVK
In words: Inhibition of Alpha-fucosidase of bovine kidney; NI=no inhibition.

In experiment [2] the target is T2, Beta-galactosidase (Bos taurus, UniProt Q58D55).
T2 sequence (Q58D55 whole entry): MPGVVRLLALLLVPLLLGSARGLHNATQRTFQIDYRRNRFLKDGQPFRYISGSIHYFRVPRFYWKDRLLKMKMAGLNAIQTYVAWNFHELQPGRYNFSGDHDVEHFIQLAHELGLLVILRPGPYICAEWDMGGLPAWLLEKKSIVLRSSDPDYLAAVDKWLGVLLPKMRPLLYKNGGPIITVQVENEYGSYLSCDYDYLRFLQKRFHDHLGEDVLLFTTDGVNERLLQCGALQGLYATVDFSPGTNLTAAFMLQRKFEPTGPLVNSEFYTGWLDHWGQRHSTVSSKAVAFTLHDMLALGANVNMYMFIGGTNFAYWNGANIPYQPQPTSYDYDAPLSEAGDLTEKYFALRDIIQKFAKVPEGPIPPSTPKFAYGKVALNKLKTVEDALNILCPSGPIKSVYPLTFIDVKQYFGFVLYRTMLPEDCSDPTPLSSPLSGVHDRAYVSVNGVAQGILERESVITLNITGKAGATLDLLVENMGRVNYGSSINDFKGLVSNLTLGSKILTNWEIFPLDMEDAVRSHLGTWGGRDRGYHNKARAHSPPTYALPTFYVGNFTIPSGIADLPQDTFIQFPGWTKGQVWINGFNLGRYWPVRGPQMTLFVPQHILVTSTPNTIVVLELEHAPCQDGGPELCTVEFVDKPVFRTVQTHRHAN
Briefly: Inhibition of Beta-galactosidase of bovine liver; […].

Experiment [3] can be described thus: Compound was tested for the inhibition of alpha-Glucosidase of Bakers yeast; NI denotes no inhibition. The arrangement: species or system Saccharomyces cerevisiae.
Experiment [4] is described as follows: Inhibition of Alpha-galactosidase of green coffee beans; NI=no inhibition.
Experiment [5] is described as follows: Inhibition of Alpha-Glucosidase of Bakers yeast; NI=no inhibition. The arrangement: species or system Saccharomyces cerevisiae.
A short description of experiment [6]: Inhibition of Alpha-galactosidase of green coffee beans; […].
Experiment [7] in a line: Inhibition of Alpha-galactosidase of green coffee beans.

For `OC1[C@H]2CO[C@H]1[C@@H](O)[C@H](NCCc1ccccc1)C2` (single isomer, unassigned), the 50% inhibitory concentration (IC50) result is recorded as “Not Active” in experiment [1], “No inhibition” in experiment [2], “Not Active” in experiment [3] and “Not Active” in experiment [4].
Regarding `CCCCCCN[C@@H]1C[C@@H]2CO[C@H](C2O)[C@H]1O` (single isomer, unassigned), the IC50 entry is “Not Active” in experiment [1], “No inhibition” in experiment [2], “Not Active” in experiment [4] and “Not Active” in experiment [5].
Take `CCCCCCCCCCN[C@@H]1C[C@@H]2CO[C@H](C2O)[C@H]1O` (single isomer, unassigned): the IC50 result in experiment [1] is on record as “Not Active”; in experiment [2], “No inhibition”; in experiment [4], “Not Active”; in experiment [5], “Not Active”.
`CCCCCCCCNC1CC(C)C(O)C(O)C1O` (centres undefined) showed an IC50 in experiment [6] of over 1000 µM.
`CC(=O)NC1CC(CO)C(O)C(O)C1O` (centres undefined) displayed a 50% inhibitory concentration (IC50) in experiment [6] of over 1000 µM.
On the same count and under the same terms, the same measure for `CCCCCCCCNC1CC(CO)C(O)C(O)C1O` (centres undefined): over 1000 µM.
In turn, `CO[C@@H]1CC2COC(C1O)[C@H]2NC1CC(CO)C(O)C(O)C1O` (some centres undefined) came in with an IC50 in experiment [7] of 1.2 µM.
For the compound `OC1[C@H]2CO[C@H]1[C@@H](O)[C@H](NCc1ccccc1)C2` (single isomer, unassigned), the half-maximal inhibitory concentration (IC50) result in experiment [1] is reported as “Not Active”; in experiment [2] it was “No inhibition”; in experiment [4], “Not Active”; in experiment [5], “Not Active”.
As for `CCCCN[C@@H]1C[C@@H]2CO[C@H](C2O)[C@H]1O` (single isomer, unassigned), the IC50 entry is listed as “Not Active” in experiment [1], “No inhibition” in experiment [2], “Not Active” in experiment [4] and “Not Active” in experiment [5].
As for `C=C1CC(NCCCCCCCC)C(O)C(O)C1O` (centres undefined), the IC50 in experiment [6] was over 1000 µM.
On to `CCCCCCCCCCCCN[C@@H]1C[C@@H]2CO[C@H](C2O)[C@H]1O` (single isomer, unassigned), for which the IC50 entry was “Not Active” in experiment [1], “No inhibition” in experiment [2], “Not Active” in experiment [4] and “Not Active” in experiment [5].
On to `CCCCCCCCN[C@@H]1C[C@@H]2CO[C@H](C2O)[C@H]1O` (single isomer, unassigned), for which the IC50 entry is listed as “Not Active” in experiment [1], “No inhibition” in experiment [2], “Not Active” in experiment [4] and “Not Active” in experiment [5].
In experiment [7], `N[C@H]1C[C@H](CO)[C@@H](O)[C@H](O)[C@H]1O` came in with a 50% inhibitory concentration (IC50) of 2.8 µM.

Values taken from ChEMBL document CHEMBL1138689, “Synthesis of 5a-carba-hexopyranoses and hexopyranosylamines, as well as 5a,5a'-dicarbadisaccharides, from 3,8-dioxatricyclo[4.2.1.0(2,4)]nonan-9-ol: glycosidase inhibitory activity of N-substituted 5a-carba-beta-gluco- and beta-galactopyranosylamines, and derivatives thereof” (Bioorg Med Chem Lett, 2004).
